No end group written: not given here.
What follows are substances tested on ob/ob mice (assay: In vivo glucose absorption (oral glucose challenge)). Conditions: given orally at 100 µg, 30 minutes prior to an oral glucose challenge; serum glucose.
Experimental: Eight female ob/ob mice, approximately 6 weeks old (Jackson Labs, Bar Harbor, ME) are adapted to a 4 hour daily feeding schedule for two weeks. After two weeks on the feeding schedule, the mice are give 100 µg of a peptide corresponding to the amino acid sequence as shown in SEQ ID NOs:4-6, 9-11, 14-17, 20-22, or 25-26 in 100 µl sterile 0.1% BSA by oral gavage, immediately after their eating period (post-prandially). Thirty minutes later, the mice are challenged orally with a 0.5 ml volume of 25% glucose. Retroorbital bleeds are done to determine serum glucose levels. Blood is drawn prior to peptide dosing, prior to oral glucose challenge, and at 1, 2, 4, and 20 hours following the glucose challenge.
“zsig33-epsilon: peptide corresponding to residues 1 to 13 of SEQ ID NO:17; listing has 13-residue amidated SEQ ID NO:26 (LSGVQYQQHSQAL-NH2)” was tested, and the post-prandial glucose absorption was “enhanced post-prandial glucose absorption”. With “zsig33-delta: peptide corresponding to residues 1 to 10 of SEQ ID NO:14; listing has 10-residue SEQ ID NO:20 (FNAPFDVGIK)” the post-prandial glucose absorption was “enhanced post-prandial glucose absorption”. In the case of “zsig33-gamma: peptide corresponding to residues 1 to 17 of SEQ ID NO:10; listing has 17-residue SEQ ID NO:14 (FLQDILWEEAKEAPADK)”, the post-prandial glucose absorption is reported as “enhanced post-prandial glucose absorption”.
